Measured values reported in the supplement of paper PMC13386468.
pIC50: −log10 of the molar value.

How the values were obtained:
Assay in all cases: IC50 for competition of protein binding to Kinobeads
Conditions in all cases: assay detail: Kinobeads competition in P. falciparum blood-stage lysate
[1] = biological target: UniProt Q8IKS4
[2] = biological target: UniProt Q8IAL6
[3] = biological target: UniProt Q8IDI5
[4] = biological target: UniProt Q8IIL0
[5] = biological target: UniProt Q8IDZ8
[6] = biological target: UniProt Q8I3Y8
[7] = biological target: UniProt Q8IDN4
[8] = biological target: UniProt Q8I283
[9] = biological target: UniProt Q8I5M2
[10] = biological target: UniProt O97250
[11] = biological target: UniProt Q8IKF6
[12] = biological target: UniProt Q8IIB6
[13] = biological target: UniProt Q7KQK6
[14] = biological target: UniProt O97247
[15] = biological target: UniProt Q8IFM0
[16] = biological target: UniProt Q8IKZ6
[17] = biological target: UniProt Q8I2U5
[18] = biological target: UniProt Q8ILI9
[19] = biological target: UniProt Q8I5A4
[20] = biological target: UniProt Q8IE22
[21] = biological target: UniProt O77345
[22] = biological target: UniProt Q8ID72
[23] = biological target: UniProt Q8IE09
[24] = biological target: UniProt Q8ILG6
[25] = biological target: UniProt Q8I608
[26] = biological target: UniProt Q8IDQ9
[27] = biological target: UniProt Q8I1Q9
[28] = biological target: UniProt Q8I353
[29] = biological target: UniProt Q8IHY0
[30] = biological target: UniProt Q8IJP3
[31] = biological target: UniProt Q8IL58
[32] = biological target: UniProt Q8IBH7
[33] = biological target: UniProt Q8I0V4
[34] = biological target: UniProt Q8IIR0
[35] = biological target: UniProt Q8IJC6
[36] = biological target: UniProt Q9TY96
[37] = biological target: UniProt Q8II11
[38] = biological target: UniProt Q8IB44
[39] = biological target: UniProt Q8I2Q0
[40] = biological target: UniProt Q7K6A0
[41] = biological target: UniProt Q8I3V8
[42] = biological target: UniProt Q8IDS6
[43] = biological target: UniProt P46468
[44] = biological target: UniProt Q8IID2
[45] = biological target: UniProt C6KT13
[46] = biological target: UniProt Q8IBT2
[47] = biological target: UniProt Q8II23
[48] = biological target: UniProt Q8I0U8
[49] = biological target: UniProt Q8I0W9
[50] = biological target: UniProt C6KSZ6
[51] = biological target: UniProt C6KSV0
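Also: native unpurified kinases from lysate captured on beads bearing immobilized kinase inhibitors, with bead-bound kinases quantified by mass spectrometry across compound doses.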

Sequence of UniProt Q8IBH7 (Q8IBH7 whole entry): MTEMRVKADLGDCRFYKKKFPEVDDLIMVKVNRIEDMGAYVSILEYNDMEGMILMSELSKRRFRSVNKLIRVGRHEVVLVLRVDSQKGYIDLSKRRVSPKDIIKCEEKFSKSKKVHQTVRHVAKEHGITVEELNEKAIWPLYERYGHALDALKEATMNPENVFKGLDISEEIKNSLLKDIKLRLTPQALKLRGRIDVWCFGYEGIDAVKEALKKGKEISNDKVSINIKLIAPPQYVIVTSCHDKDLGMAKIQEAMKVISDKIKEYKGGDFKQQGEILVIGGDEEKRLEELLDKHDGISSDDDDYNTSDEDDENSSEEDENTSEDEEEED
Sequence of UniProt Q8IDQ9 (Q8IDQ9 whole entry): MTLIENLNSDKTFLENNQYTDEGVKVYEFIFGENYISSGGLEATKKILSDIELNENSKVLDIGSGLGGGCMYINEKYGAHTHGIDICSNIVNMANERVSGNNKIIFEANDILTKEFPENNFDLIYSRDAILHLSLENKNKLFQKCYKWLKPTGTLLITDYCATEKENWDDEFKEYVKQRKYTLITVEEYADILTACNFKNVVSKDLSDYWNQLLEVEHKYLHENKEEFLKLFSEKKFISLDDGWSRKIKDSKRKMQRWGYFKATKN
Sequence of UniProt Q8IDN4 (Q8IDN4 whole entry): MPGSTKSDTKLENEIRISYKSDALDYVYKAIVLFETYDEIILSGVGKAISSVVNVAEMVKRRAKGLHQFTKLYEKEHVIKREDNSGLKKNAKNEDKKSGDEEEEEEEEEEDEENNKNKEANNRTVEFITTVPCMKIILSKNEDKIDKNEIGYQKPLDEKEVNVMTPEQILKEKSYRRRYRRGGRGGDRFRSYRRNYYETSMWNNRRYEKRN
Sequence of UniProt Q9TY96 (Q9TY96 whole entry): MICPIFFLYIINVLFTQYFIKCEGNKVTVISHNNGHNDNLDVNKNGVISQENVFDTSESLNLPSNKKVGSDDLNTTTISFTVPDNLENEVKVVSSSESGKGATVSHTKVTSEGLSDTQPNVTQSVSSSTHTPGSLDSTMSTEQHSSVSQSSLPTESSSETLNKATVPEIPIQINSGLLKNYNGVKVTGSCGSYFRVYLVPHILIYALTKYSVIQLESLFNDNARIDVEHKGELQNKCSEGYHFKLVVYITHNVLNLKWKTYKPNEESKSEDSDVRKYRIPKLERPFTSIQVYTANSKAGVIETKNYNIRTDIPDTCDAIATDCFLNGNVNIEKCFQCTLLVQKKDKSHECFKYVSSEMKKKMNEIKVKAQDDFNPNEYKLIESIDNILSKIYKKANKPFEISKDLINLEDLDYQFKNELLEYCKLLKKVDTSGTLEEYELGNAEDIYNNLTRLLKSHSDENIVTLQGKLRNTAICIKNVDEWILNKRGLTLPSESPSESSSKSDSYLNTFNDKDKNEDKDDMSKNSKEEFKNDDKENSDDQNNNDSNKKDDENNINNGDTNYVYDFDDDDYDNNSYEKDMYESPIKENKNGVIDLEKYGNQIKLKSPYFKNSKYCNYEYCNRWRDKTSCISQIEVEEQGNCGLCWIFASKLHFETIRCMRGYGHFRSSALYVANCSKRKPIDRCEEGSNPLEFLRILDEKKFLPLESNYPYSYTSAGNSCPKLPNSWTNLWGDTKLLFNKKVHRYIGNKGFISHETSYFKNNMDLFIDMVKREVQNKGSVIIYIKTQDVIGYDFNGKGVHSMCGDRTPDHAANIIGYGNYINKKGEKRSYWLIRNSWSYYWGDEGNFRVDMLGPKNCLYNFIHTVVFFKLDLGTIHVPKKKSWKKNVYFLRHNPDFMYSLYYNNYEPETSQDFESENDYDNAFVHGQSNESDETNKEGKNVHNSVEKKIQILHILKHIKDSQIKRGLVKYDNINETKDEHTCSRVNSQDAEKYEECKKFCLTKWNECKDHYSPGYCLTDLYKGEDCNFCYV
Sequence of UniProt Q8I3Y8 (Q8I3Y8 whole entry): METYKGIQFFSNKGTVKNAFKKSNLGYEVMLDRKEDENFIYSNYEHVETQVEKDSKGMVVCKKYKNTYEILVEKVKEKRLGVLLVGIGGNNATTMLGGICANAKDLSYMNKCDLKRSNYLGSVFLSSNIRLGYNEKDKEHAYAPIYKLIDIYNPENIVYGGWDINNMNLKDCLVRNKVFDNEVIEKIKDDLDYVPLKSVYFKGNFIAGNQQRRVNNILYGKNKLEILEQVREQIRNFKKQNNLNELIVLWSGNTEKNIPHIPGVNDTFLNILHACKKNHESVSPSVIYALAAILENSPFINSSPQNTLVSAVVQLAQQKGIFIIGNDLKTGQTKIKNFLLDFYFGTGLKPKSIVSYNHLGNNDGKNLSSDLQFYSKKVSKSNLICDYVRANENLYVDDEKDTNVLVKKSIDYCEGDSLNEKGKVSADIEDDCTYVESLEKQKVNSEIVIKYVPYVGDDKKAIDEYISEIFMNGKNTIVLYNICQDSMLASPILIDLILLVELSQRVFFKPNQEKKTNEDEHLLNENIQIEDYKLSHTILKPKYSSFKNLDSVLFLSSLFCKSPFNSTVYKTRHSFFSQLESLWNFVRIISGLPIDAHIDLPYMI
Sequence of UniProt Q8I0U8 (Q8I0U8 whole entry): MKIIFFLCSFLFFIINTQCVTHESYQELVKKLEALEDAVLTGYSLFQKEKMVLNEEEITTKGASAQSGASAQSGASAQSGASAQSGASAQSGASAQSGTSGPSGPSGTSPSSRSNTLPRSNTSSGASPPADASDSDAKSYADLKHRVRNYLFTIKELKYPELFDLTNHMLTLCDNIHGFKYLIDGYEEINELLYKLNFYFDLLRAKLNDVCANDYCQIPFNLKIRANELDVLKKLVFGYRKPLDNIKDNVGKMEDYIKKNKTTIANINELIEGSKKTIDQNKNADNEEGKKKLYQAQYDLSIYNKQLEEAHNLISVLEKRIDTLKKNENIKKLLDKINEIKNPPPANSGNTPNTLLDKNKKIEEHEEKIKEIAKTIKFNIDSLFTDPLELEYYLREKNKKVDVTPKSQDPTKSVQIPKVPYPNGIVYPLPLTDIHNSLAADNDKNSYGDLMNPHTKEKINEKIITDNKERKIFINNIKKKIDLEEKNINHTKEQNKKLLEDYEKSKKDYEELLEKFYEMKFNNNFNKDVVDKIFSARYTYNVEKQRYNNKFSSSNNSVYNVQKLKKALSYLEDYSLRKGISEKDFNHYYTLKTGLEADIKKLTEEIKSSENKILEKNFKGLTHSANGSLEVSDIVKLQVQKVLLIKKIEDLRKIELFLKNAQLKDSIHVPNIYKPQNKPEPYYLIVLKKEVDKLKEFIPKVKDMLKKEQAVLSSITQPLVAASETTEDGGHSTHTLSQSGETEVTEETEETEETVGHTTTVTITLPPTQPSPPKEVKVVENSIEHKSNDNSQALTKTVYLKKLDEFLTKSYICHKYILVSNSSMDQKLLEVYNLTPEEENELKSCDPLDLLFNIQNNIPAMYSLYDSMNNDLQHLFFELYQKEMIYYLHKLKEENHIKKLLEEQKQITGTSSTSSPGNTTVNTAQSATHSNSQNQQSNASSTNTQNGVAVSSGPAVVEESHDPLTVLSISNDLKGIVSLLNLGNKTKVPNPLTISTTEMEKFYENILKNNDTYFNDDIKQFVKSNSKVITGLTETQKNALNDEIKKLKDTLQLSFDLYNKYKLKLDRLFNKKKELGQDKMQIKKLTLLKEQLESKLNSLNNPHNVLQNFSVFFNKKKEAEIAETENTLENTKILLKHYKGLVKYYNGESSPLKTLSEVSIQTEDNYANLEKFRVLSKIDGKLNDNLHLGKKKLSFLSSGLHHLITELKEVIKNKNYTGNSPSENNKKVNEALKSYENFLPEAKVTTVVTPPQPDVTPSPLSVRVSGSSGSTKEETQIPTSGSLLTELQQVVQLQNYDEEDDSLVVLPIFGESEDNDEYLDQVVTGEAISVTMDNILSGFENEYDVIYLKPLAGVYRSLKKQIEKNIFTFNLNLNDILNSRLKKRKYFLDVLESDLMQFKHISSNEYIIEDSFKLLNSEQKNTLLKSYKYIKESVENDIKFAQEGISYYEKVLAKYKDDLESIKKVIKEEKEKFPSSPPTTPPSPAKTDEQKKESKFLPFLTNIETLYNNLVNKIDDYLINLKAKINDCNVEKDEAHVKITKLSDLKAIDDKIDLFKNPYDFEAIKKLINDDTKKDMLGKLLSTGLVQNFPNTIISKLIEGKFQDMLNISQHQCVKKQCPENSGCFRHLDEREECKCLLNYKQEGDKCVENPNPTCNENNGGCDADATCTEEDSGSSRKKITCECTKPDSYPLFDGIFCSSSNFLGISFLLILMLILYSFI
Sequence of UniProt Q8IIL0 (Q8IIL0 whole entry): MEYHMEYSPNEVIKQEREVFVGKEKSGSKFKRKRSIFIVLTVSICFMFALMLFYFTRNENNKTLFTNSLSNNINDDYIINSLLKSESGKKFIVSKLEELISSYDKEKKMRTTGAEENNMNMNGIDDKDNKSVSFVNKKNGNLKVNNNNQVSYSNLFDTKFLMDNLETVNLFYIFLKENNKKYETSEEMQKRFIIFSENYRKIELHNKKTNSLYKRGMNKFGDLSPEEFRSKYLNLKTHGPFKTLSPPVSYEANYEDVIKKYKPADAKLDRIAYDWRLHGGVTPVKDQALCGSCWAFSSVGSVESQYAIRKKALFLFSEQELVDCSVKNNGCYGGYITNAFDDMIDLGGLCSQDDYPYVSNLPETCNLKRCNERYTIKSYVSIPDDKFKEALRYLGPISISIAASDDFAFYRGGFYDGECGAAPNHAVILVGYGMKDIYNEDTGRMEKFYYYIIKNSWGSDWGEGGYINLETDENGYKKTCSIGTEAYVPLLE

O=c1[nH]c2ccc(Cl)cc2c(NC2CN3CCC2CC3)c1-c1nc2ccccc2[nH]1 (stereo unspecified) [CHIR-124]
pIC50 [1]: < 4.70
pIC50 [2]: < 4.70
pIC50 [3]: < 4.70
pIC50 [4]: < 4.70
pIC50 [5]: < 4.70
pIC50 [6]: < 4.70
pIC50 [7]: < 4.70
pIC50 [8]: < 4.70
pIC50 [9]: < 4.70
pIC50 [10]: < 4.70
pIC50 [11]: < 4.70
pIC50 [12]: < 4.70
pIC50 [13]: < 4.70
pIC50 [14]: < 4.70
pIC50 [15]: < 4.70
pIC50 [16]: < 4.70
pIC50 [17]: < 4.70
pIC50 [18]: < 4.70
pIC50 [19]: < 4.70
pIC50 [20]: < 4.70
pIC50 [21]: < 4.70
pIC50 [22]: < 4.70
pIC50 [23]: < 4.70
pIC50 [24]: < 4.70
pIC50 [25]: < 4.70
pIC50 [26]: < 4.70
pIC50 [27]: < 4.70
pIC50 [28]: < 4.70
pIC50 [29]: < 4.70
pIC50 [30]: < 4.70
pIC50 [31]: < 4.70
pIC50 [32]: < 4.70
pIC50 [33]: < 4.70
pIC50 [34]: < 4.70
pIC50 [35]: < 4.70
pIC50 [36]: < 4.70
pIC50 [37]: > 7.08
pIC50 [38]: < 4.70
pIC50 [39]: < 4.70
pIC50 [40]: 6.06
pIC50 [41]: < 4.70
pIC50 [42]: < 4.70
pIC50 [43]: < 4.70
pIC50 [44]: < 4.70
pIC50 [45]: < 4.70
pIC50 [46]: < 4.70
pIC50 [47]: < 4.70
pIC50 [48]: < 4.70
pIC50 [49]: < 4.70
pIC50 [50]: 5.65
pIC50 [51]: < 4.70
